According to US9951049B2, “Pyrazole linked benzimidazole conjugates and a process for preparation thereof” (Council of Scientific & Industrial Reseach, priority 2014, dated 2018):
Where two headings read alike, the source gives them in different places.

Assays:
CCRF-CEM = assay: NCI SRB screen, CCRF-CEM; conditions: Homo sapiens, 48 h, read-out: GI50 values
MDA-MB-231/ATCC = assay: NCI SRB screen, MDA-MB-231/ATCC; conditions: Homo sapiens, MDA-MB-231, 48 h, read-out: GI50 values
HT29 = assay: NCI SRB screen, HT29; conditions: Homo sapiens, HT-29, 48 h, read-out: GI50 values
NCI-H460 = assay: NCI SRB screen, NCI-H460; conditions: Homo sapiens, NCI-H460, 48 h, read-out: GI50 values
786-0 = assay: NCI SRB screen, 786-0; conditions: Homo sapiens, 786-0, 48 h, read-out: GI50 values
ACHN = assay: NCI SRB screen, ACHN; conditions: Homo sapiens, 48 h, read-out: GI50 values
NCI-H522 = assay: NCI SRB screen, NCI-H522
Renal cancer cell lines = assay: NCI SRB screen, Renal panel average; conditions: Homo sapiens, 48 h, read-out: Log10 GI50 (converted)
MCF7 = assay: NCI SRB screen, MCF7; conditions: Homo sapiens, MCF7, 48 h, read-out: GI50 values
SF-539 = assay: NCI SRB screen, SF-539; conditions: Homo sapiens, 48 h, read-out: GI50 values
[1] = tested on: Non-small-cell lung cancer cell lines; assay: NCI SRB screen, Non-small-cell lung panel average; conditions: Homo sapiens, 48 h, read-out: Log10 GI50 (converted)
OVCAR-8 = assay: NCI SRB screen, OVCAR-8; conditions: Homo sapiens, OVCAR-8, 48 h, read-out: GI50 values
K-562 = assay: NCI SRB screen, K-562; conditions: Homo sapiens, K562, 48 h, read-out: GI50 values
NCI-H226 = assay: NCI SRB screen, NCI-H226; conditions: Homo sapiens, NCI-H226, 48 h, read-out: GI50 values
KM12 = assay: NCI SRB screen, KM12; conditions: Homo sapiens, KM12, 48 h, read-out: GI50 values
NCI/ADR-RES = assay: NCI SRB screen, NCI/ADR-RES; conditions: Homo sapiens, 48 h, read-out: GI50 values
BT-549 = assay: NCI SRB screen, BT-549; conditions: Homo sapiens, BT-549, 48 h, read-out: GI50 values
Breast Cancer cell lines = assay: NCI SRB screen, Breast Cancer panel average; conditions: Homo sapiens, 48 h, read-out: Log10 GI50 (converted)
MALME-3M = assay: NCI SRB screen, MALME-3M; conditions: Homo sapiens, 48 h, read-out: GI50 values
SK-MEL-5 = assay: NCI SRB screen, SK-MEL-5; conditions: Homo sapiens, SK-MEL-5, 48 h, read-out: GI50 values, Melanoma, SK-MEL-5
OVCAR-5 = assay: NCI SRB screen, OVCAR-5; conditions: Homo sapiens, OVCAR-5, 48 h, read-out: GI50 values
A549/ATCC = assay: NCI SRB screen, A549/ATCC; conditions: Homo sapiens, A549, 48 h, read-out: GI50 values
SK-MEL-28 = assay: NCI SRB screen, SK-MEL-28; conditions: Homo sapiens, SK-MEL-28, 48 h, read-out: GI50 values
SNB-75 = assay: NCI SRB screen, SNB-75; conditions: Homo sapiens, SNB-75, 48 h, read-out: GI50 values
HL-60(TB) = assay: NCI SRB screen, HL-60(TB); assay type: cell-based; conditions: Homo sapiens, Leukemia, 48 h
TK-10 = assay: NCI SRB screen, TK-10; conditions: Homo sapiens, TK-10, 48 h, read-out: GI50 values
HCT-15 = assay: NCI SRB screen, HCT-15; conditions: Homo sapiens, HCT-15, 48 h, read-out: GI50 values
Leukemia cell lines = assay: NCI SRB screen, Leukemia panel average; conditions: Homo sapiens, 48 h, read-out: Log10 GI50 (converted)
SK-OV-3 = assay: NCI SRB screen, SK-OV-3; conditions: Homo sapiens, SK-OV-3, 48 h, read-out: GI50 values
COLO-205 = assay: NCI SRB screen, COLO-205; conditions: Homo sapiens, COLO 205, 48 h, read-out: GI50 values
PC-3 = assay: NCI SRB screen, PC-3; conditions: Homo sapiens, PC-3, 48 h, read-out: GI50 values
OVCAR-4 = assay: NCI SRB screen, OVCAR-4; conditions: Homo sapiens, OVCAR-4, 48 h, read-out: GI50 values
SF-268 = assay: NCI SRB screen, SF-268; conditions: Homo sapiens, SF-268, 48 h, read-out: GI50 values
[2] = Homo sapiens, NCI-H522, 48 h, read-out: GI50 values, Non-small cell lung, NCI-H522

COc1cc(-c2cc(-c3nc4ccccc4[nH]3)[nH]n2)cc(OC)c1OC [6f, 2-(3-(3,4,5-trimethoxyphenyl)-1H-pyrazol-5-yl)-1H-benzo[d]imidazole]
GI50 (CCRF-CEM): 2120 nM
GI50 (MDA-MB-231/ATCC): 3220 nM
GI50 (HT29): 7160 nM
GI50 (NCI-H460): 3640 nM
GI50 (786-0): 3660 nM
GI50 (ACHN): 2770 nM
GI50 (NCI-H522; [2]): 1840 nM
GI50 (NCI-H522; read-out: GI50 values, Non-small cell lung, NCI-H522, 48 h): 1870 nM
GI50 (Renal cancer cell lines): 2630 nM
GI50 (MCF7): 2790 nM
GI50 (SF-539): 5110 nM
GI50 [1]: 2400 nM
GI50 (OVCAR-8): 2350 nM
GI50 (K-562): 3080 nM
GI50 (NCI-H226): 1140 nM
GI50 (KM12): 3150 nM
GI50 (NCI/ADR-RES): 2880 nM
GI50 (BT-549): 1800 nM
GI50 (Breast Cancer cell lines): 2240 nM
GI50 (MALME-3M): 1950 nM
GI50 (SK-MEL-5): 1340 nM
GI50 (OVCAR-5): 1300 nM
GI50 (A549/ATCC): 2430 nM
GI50 (SK-MEL-28): 2720 nM
GI50 (SNB-75): 2830 nM
GI50 (HL-60(TB)): 2540 nM
GI50 (TK-10): 4070 nM
GI50 (HCT-15): 3430 nM
GI50 (Leukemia cell lines): 2290 nM
GI50 (SK-OV-3): 3480 nM
GI50 (COLO-205): 3980 nM
GI50 (PC-3): 2100 nM
GI50 (OVCAR-4): 1260 nM
GI50 (SF-268): 6430 nM

COc1ccc2[nH]c(-c3cc(-c4cc(OC)c(OC)c(OC)c4)n[nH]3)nc2c1 [9f, 5-methoxy-2-(3-(3,4,5-trimethoxyphenyl)-1H-pyrazol-5-yl)-1H-benzo[d]imidazole]
GI50 (CCRF-CEM): 1290 nM
GI50 (MDA-MB-231/ATCC): 2870 nM
GI50 (HT29): 2760 nM
GI50 (NCI-H460): 2640 nM
GI50 (786-0): 2920 nM
GI50 (ACHN): 2630 nM
GI50 (NCI-H522; [2]): 1210 nM
GI50 (Renal cancer cell lines): 2240 nM
GI50 (MCF7): 2150 nM
GI50 (SF-539): 2420 nM
GI50 [1]: 1480 nM
GI50 (OVCAR-8): 1150 nM
GI50 (K-562): 2010 nM
GI50 (NCI-H226): 460 nM
GI50 (KM12): 1700 nM
GI50 (NCI/ADR-RES): 2910 nM
GI50 (BT-549): 890 nM
GI50 (Breast Cancer cell lines): 1150 nM
GI50 (MALME-3M): 1740 nM
GI50 (OVCAR-5): 3030 nM
GI50 (A549/ATCC): 1630 nM
GI50 (SK-MEL-28): 1900 nM
GI50 (SNB-75): 2230 nM
GI50 (HL-60(TB)): 1690 nM
GI50 (TK-10): 2210 nM
GI50 (HCT-15): 2500 nM
GI50 (Leukemia cell lines): 1260 nM
GI50 (SK-OV-3): 2830 nM
GI50 (COLO-205): 1610 nM
GI50 (PC-3): 1030 nM
GI50 (OVCAR-4): 1240 nM
GI50 (SF-268): 2740 nM

COc1cc(-c2cc(-c3nc4cc(Cl)ccc4[nH]3)[nH]n2)cc(OC)c1OC [8f, 5-chloro-2-(3-(3,4,5-trimethoxyphenyl)-1H-pyrazol-5-yl)-1H-benzo[d]imidazole]
GI50 (CCRF-CEM): 2480 nM
GI50 (MDA-MB-231/ATCC): 3940 nM
GI50 (HT29): 4140 nM
GI50 (NCI-H460): 3650 nM
GI50 (786-0): 5320 nM
GI50 (ACHN): 2960 nM
GI50 (NCI-H522; [2]): 1900 nM
GI50 (Renal cancer cell lines): 3160 nM
GI50 (MCF7): 2170 nM
GI50 (SF-539): 4660 nM
GI50 [1]: 2750 nM
GI50 (OVCAR-8): 2260 nM
GI50 (K-562): 3040 nM
GI50 (NCI-H226): 1880 nM
GI50 (KM12): 3450 nM
GI50 (NCI/ADR-RES): 3160 nM
GI50 (BT-549): 2540 nM
GI50 (Breast Cancer cell lines): 2570 nM
GI50 (MALME-3M): 2580 nM
GI50 (SK-MEL-5): 1620 nM
GI50 (OVCAR-5): 1210 nM
GI50 (A549/ATCC): 2960 nM
GI50 (SK-MEL-28): 2420 nM
GI50 (SNB-75): 2710 nM
GI50 (HL-60(TB)): 2490 nM
GI50 (TK-10): 3520 nM
GI50 (HCT-15): 2900 nM
GI50 (Leukemia cell lines): 2450 nM
GI50 (SK-OV-3): 4470 nM
GI50 (COLO-205): 3180 nM
GI50 (PC-3): 2470 nM
GI50 (OVCAR-4): 1380 nM
GI50 (SF-268): 3600 nM

Fc1ccc2[nH]c(-c3cc(-c4ccc5c(c4)OCO5)n[nH]3)nc2c1 [7g, 2-(3-(benzo[d][1,3]dioxol-5-yl)-1H-pyrazol-5-yl)-5-fluoro-1H-benzo[d]imidazole]
GI50 (CCRF-CEM): 2650 nM
GI50 (MDA-MB-231/ATCC): 2220 nM
GI50 (HT29): 5770 nM
GI50 (NCI-H460): 6060 nM
GI50 (786-0): 7130 nM
GI50 (ACHN): 3640 nM
GI50 (NCI-H522; [2]): 2560 nM
GI50 (Renal cancer cell lines): 4570 nM
GI50 (MCF7): 3530 nM
GI50 (SF-539): 2900 nM
GI50 [1]: 5370 nM
GI50 (OVCAR-8): 3430 nM
GI50 (K-562): 4810 nM
GI50 (NCI-H226): 4210 nM
GI50 (KM12): 2960 nM
GI50 (NCI/ADR-RES): 4430 nM
GI50 (BT-549): 2160 nM
GI50 (Breast Cancer cell lines): 3630 nM
GI50 (MALME-3M): 2750 nM
GI50 (SK-MEL-5): 1460 nM
GI50 (OVCAR-5): 6440 nM
GI50 (A549/ATCC): 3530 nM
GI50 (SK-MEL-28): 8870 nM
GI50 (SNB-75): 2800 nM
GI50 (HL-60(TB)): 2740 nM
GI50 (TK-10): 1300 nM
GI50 (HCT-15): 3730 nM
GI50 (Leukemia cell lines): 2950 nM
GI50 (SK-OV-3): 1240 nM
GI50 (COLO-205): 8110 nM
GI50 (PC-3): 3780 nM
GI50 (OVCAR-4): 1370 nM
GI50 (SF-268): 6050 nM
